The source of these data is patent publication US20240199623A1 (ILDONG PHARMACEUTICAL CO., LTD., priority 2020, published 2024).

This experiment addresses human wild type-CFTR (Homo sapiens, UniProt P13569). The experiment in a line: Cell-based YFP assay. The note with it: CHO-K1 cells expressing human wild type-CFTR and YFP-H148Q/I152L; forskolin 20 μM = 100% activity; read-out: Cell-based YFP Assay (EC50) Concentration Range. Further details: expressed in transfected cells; host or cells: CHO-K1 (Chinese hamster ovary). The gist of the method:
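CHO-K1 cells co-expressing human wild-type CFTR and YFP-H148Q/I152L halide sensor, grown 48 h at 37 °C, then in PBS. YFP quenching by I⁻ influx read at 37 °C after adding 140 mM I⁻ solution, sampled every 0.4 s for 14 s. Triplicates averaged; EC50 fitted.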

human wild type-CFTR, sequence (P13569 whole entry): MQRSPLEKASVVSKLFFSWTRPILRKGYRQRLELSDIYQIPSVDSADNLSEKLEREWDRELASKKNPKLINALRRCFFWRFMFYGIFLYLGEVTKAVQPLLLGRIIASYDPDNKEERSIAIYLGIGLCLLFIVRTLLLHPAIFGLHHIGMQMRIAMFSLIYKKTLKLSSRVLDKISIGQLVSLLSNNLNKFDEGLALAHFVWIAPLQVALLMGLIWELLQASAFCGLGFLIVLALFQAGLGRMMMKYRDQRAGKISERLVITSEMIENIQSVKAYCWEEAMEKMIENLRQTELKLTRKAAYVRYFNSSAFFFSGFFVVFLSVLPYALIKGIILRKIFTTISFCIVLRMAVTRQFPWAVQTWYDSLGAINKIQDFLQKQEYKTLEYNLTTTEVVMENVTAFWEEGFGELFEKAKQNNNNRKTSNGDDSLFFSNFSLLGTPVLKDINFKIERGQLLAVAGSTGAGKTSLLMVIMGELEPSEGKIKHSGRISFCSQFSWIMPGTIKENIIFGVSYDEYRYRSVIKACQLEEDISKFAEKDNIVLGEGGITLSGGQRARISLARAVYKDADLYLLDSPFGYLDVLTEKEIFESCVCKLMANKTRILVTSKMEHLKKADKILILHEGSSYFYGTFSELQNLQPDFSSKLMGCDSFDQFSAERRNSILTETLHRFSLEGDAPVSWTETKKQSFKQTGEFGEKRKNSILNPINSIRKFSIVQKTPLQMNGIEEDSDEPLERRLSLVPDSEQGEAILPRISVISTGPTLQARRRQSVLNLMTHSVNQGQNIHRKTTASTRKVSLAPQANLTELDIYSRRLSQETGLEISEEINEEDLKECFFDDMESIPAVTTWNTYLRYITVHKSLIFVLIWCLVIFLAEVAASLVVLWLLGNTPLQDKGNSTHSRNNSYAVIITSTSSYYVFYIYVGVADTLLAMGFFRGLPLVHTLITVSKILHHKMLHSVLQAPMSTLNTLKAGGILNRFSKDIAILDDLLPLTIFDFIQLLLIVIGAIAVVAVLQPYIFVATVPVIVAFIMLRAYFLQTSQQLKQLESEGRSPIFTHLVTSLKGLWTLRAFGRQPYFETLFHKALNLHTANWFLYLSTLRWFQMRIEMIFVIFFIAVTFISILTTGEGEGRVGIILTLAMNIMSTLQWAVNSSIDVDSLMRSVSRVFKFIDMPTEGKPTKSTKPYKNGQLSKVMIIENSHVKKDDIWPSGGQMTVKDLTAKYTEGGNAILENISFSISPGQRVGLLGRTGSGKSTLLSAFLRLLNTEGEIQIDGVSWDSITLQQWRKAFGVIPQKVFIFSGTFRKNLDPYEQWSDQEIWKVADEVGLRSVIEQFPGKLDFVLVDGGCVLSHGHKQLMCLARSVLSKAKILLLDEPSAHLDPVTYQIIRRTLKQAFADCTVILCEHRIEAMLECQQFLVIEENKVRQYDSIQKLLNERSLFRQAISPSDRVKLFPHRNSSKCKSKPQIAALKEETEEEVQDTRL

For the molecule `CCCOC(=O)[C@H]1CC[C@H](NC(=O)c2cc3nccc(-c4ccc(OC)c(OC)c4)n3n2)CC1` [Compound 331, propyl (1R,4R)-4-(7-(3,4-dimethoxyphenyl)pyrazolo [1,5-a]pyrimidine-2-carboxamido)cyclohexane-1-carboxylate], the EC50 was in the range of 0.2 to 2 µM.

With `CCOc1ccc(NC(=O)c2cc3nccc(-c4ccc5c(c4)CCO5)n3n2)cc1` [Compound 313, 7-(2,3-dihydrobenzofuran-5-yl)-N-(4-ethoxyphenyl)pyrazolo [1,5-a]pyrimidine-2-carboxamide], the EC50 was ≥ 2 µM.

Regarding `COc1ccc(-c2ccnc3cc(C(=O)N4CCc5ccc(C(=O)N6CCOCC6)cc54)nn23)cc1OC` [Compound 253, (7-(3,4-dimethoxyphenyl)pyrazolo[1,5-a]pyrimidin-2-yl)(6-(morpholine-4-carbonyl)indolin-1-yl) methanone], the EC50 is 0.2 to 2 µM.

`COc1ccc(-c2ccnc3cc(C(=O)N4CCOCC4)nn23)cc1OC` [Compound 61, (7-(3,4-dimethoxyphenyl)pyrazolo[1,5-a]pyrimidine-2-yl) (morpholino)methanone]: the EC50 was ≥ 2 µM.

In the case of `COc1ccc(-c2ccnc3cc(C(=O)Nc4ccc(C(=O)O)c(F)c4)nn23)cc1OC` [Compound 278, 4-(7-(3,4-dimethoxyphenyl)pyrazolo[1,5-a]pyrimidine-2-carboxamido)-2-fluorobenzoic acid], the EC50 was ≥ 2 µM.

As for `COc1ccc(-c2ccnc3cc(C(=O)N4CCN(C)[C@@H](C)C4)nn23)cc1OC` [Compound 208, (S)-(7-(3,4-dimethoxyphenyl)pyrazolo [1,5-a]pyrimidin-2-yl)(3,4-dimethylpiperazin-1-yl)methanone], the EC50 is ≥ 2 µM.

Take `CCOC(=O)c1ccc(NC(=O)c2cc3nccc(-c4ccc(OC)c(OC)c4)n3n2)cc1` [Compound 334, ethyl 4-(7-(3,4-dimethoxyphenyl)pyrazolo[1,5-a]pyrimidine-2-carboxamido)benzoate]: the EC50 was < 0.2 µM.

In the case of `CCOc1ccc(NC(=O)c2cc3nccc(-c4ccc(OC)c(F)c4)n3n2)cc1` [Compound 308, N-(4-ethoxyphenyl)-7-(3-fluoro-4-methoxyphenyl)pyrazolo [1,5-a]pyrimidine-2-carboxamide], the EC50 is 0.2 to 2 µM.

With `CCOc1ccc(NC(=O)c2cc3nccc(-c4ccc(N(C)C)cc4)n3n2)cc1` [Compound 324, 7-(4-(dimethylamino)phenyl)-N-(4-ethoxyphenyl)pyrazolo [1,5-a]pyrimidine-2-carboxamide], the EC50 was ≥ 2 µM.

Take `COc1ccc(-c2ccnc3cc(C(=O)N4CCN(C(=O)c5ccccc5)C(C)(C)C4)nn23)cc1OC` [Compound 211, (4-benzoyl-3,3-dimethylpiperazin-1-yl) (7-(3,4-dimethoxyphenyl)pyrazolo [1,5-a]pyrimidin-2-yl)methanone]: the EC50 is 0.2 to 2 µM.

For `COc1ccc(-c2ccnc3cc(C(=O)O)nn23)cc1OC` [Compound 5, 7-(3,4-dimethoxyphenyl)pyrazolo[1,5-a]pyrimidine-2-carboxylic acid], the EC50 is ≥ 2 µM.

In the case of `O=C(Nc1ccc(N2CCOCC2)cn1)c1cc2nccc(-c3ccc(OC(F)(F)F)c(Cl)c3)n2n1` [Compound 299, 7-(3-chloro-4-(trifluoromethoxy)phenyl)-N-(5-morpholinopyridin-2-yl) pyrazolo[1,5-a]pyrimidine-2-carboxamide], the EC50 was ≥ 2 µM.

On to `COC(=O)c1ccc(NC(=O)Nc2cc3nccc(-c4ccc(OC)c(OC)c4)n3n2)cc1` [Compound 93, methyl 4-(3-(7-(3,4-dimethoxyphenyl)pyrazolo[1,5-a]pyrimidin-2-yl)ureido)benzoate], for which the EC50 is 0.2 to 2 µM.

Consider `COc1ccc(-c2ccnc3cc(C(=O)N[C@H]4CC[C@@H](O)CC4)nn23)cc1OC` [Compound 102, 7-(3,4-dimethoxyphenyl)-N-((1S,4S)-4-hydroxycyclohexyl) pyrazolo[1,5-a]pyrimidine-2-carboxamide], for which the EC50 was ≥ 2 µM.

Consider `COc1ccc(-c2ccnc3cc(C(=O)N4CCN[C@@H](C)C4)nn23)cc1OC` [Compound 181, (S)-(7-(3,4-dimethoxyphenyl)pyrazolo[1,5-a]pyrimidin-2-yl)(3-methylpiperazin-1-yl)methanone], for which the EC50 was ≥ 2 µM.

Consider `COC(=O)[C@H](CCSC)NC(=O)c1ccc(NC(=O)c2cc3nccc(-c4ccc(OC)c(OC)c4)n3n2)cc1` [Compound 59, methyl (4-(7-(3,4-dimethoxyphenyl)pyrazolo [1,5-a]pyrimidine-2-carboxamido)benzoyl)-L-methioninate], for which the EC50 is < 0.2 µM.

For `COCCOCOc1ccc(NC(=O)c2cc3nccc(-c4ccc(OC)c(OC)c4)n3n2)cc1` [Compound 346, 7-(3,4-dimethoxyphenyl)-N-(4-((2-methoxyethoxy)methoxy)phenyl)pyrazolo[1,5-a]pyrimidine-2-carboxamide], the EC50 was < 0.2 µM.

In the case of `CCN(CC)CCCNC(=O)c1ccc(NC(=O)c2cc3nccc(-c4ccc(OC)c(OC)c4)n3n2)cc1` [Compound 222, N-(4-((3-(diethylamino)propyl)carbamoyl)phenyl)-7-(3,4-dimethoxyphenyl) pyrazolo[1,5-a]pyrimidine-2-carboxamide], the EC50 is ≥ 2 µM.

On to `COC(=O)c1ccc(NC(=O)c2cc3nccc(-c4ccc(OC)c(OC)c4)n3n2)c(Cl)c1` [Compound 104, methyl 3-chloro-4-(7-(3,4-dimethoxyphenyl)pyrazolo [1,5-a]pyrimidine-2-carboxamido)benzoate], for which the EC50 is ≥ 2 µM.

Take `CCCCOC(=O)c1ccc(NC(=O)c2cc3nccc(-c4ccc(OC)c(OC)c4)n3n2)cc1` [Compound 336, butyl 4-(7-(3,4-dimethoxyphenyl)pyrazolo[1,5-a]pyrimidine-2-carboxamido) benzoate]: the EC50 lay within 0.2 to 2 µM.

For `COc1ccc(-c2ccnc3cc(C(=O)N4C[C@H](C)NC[C@@H]4C)nn23)cc1OC` [Compound 362, (7-(3,4-dimethoxyphenyl)pyrazolo[1,5-a]pyrimidin-2-yl) ((2S,5S)-2,5-dimethylpiperazin-1-yl)methanone], the EC50 lay in the range of 0.2 to 2 µM.

On to `COc1ccc(-c2ccnc3cc(C(=O)N4CCN(C(=O)c5ccncc5)[C@@H](C)C4)nn23)cc1OC` [Compound 357, (S)-(7-(3,4-dimethoxyphenyl)pyrazolo[1,5-a]pyrimidin-2-yl)(4-isonicotinoyl-3-methylpiperazin-1-yl)methanone], for which the EC50 was in the range of 0.2 to 2 µM.

On to `COc1ccc(-c2ccnc3cc(C(=O)Nc4ccc(C(=O)N5CCC(N6CCOCC6)CC5)cc4F)nn23)cc1OC` [Compound 349, 7-(3,4-dimethoxyphenyl)-N-(2-fluoro-4-(4-morpholinopiperidine-1-carbonyl)phenyl)pyrazolo [1,5-a]pyrimidine-2-carboxamide], for which the EC50 is < 0.2 µM.

Consider `CCC[C@H]1CN(C(=O)c2cc3nccc(-c4ccc(OC)c(OC)c4)n3n2)CCN1` [Compound 373, (S)-(7-(3,4-dimethoxyphenyl)pyrazolo[1,5-a]pyrimidin-2-yl)(3-propylpiperazin-1-yl)methanone], for which the EC50 lay in the range of 0.2 to 2 µM.

As to `COc1ccc(-c2ccnc3cc(C(=O)N4CCN(C(=O)COC(C)=O)CC4)nn23)cc1OC` [Compound 83, 2-(4-(7-(3,4-dimethoxyphenyl)pyrazolo[1,5-a]pyrimidine-2-carbonyl)piperazin-1-yl)-2-oxoethyl acetate], the EC50 is ≥ 2 µM.

On to `COc1ccc(-c2ccnc3cc(C(=O)N4CCN[C@@H](C(C)C)C4)nn23)cc1OC` [Compound 372, (S)-(7-(3,4-dimethoxyphenyl)pyrazolo[1,5-a]pyrimidin-2-yl)(3-isopropylpiperazin-1-yl)methanone], for which the EC50 lay within 0.2 to 2 µM.

As to `COc1ccc(-c2ccnc3cc(C(=O)Nc4ccc(OC(=O)[C@H](C)NC(=O)OC(C)(C)C)cc4)nn23)cc1OC` [Compound 228, 4-(7-(3,4-dimethoxyphenyl)pyrazolo[1,5-a]pyrimidine-2-carboxamido) phenyl(tert-butoxycarbonyl)-L-alaninate], the EC50 is < 0.2 µM.

Regarding `COc1ccc(-c2ccnc3cc(C(=O)Nc4ccc(OC(=O)CNC(=O)OC(C)(C)C)cc4)nn23)cc1OC` [Compound 227, 4-(7-(3,4-dimethoxyphenyl)pyrazolo[1,5-a]pyrimidine-2-carboxamido) phenyl(tert-butoxycarbonyl)glycinate], the EC50 was < 0.2 µM.

Turning to `COc1ccc(-c2ccnc3cc(C(=O)N4CCN(C(=O)c5ccccc5)CC4)nn23)cc1OC` [Compound 209, (4-benzoylpiperazin-1-yl)(7-(3,4-dimethoxyphenyl)pyrazolo [1,5-a]pyrimidin-2-yl)methanone], the EC50 is < 0.2 µM.

On to `COc1ccc(-c2ccnc3cc(C(=O)N4CCN(C(=O)c5ccoc5)[C@@H](C)C4)nn23)cc1OC` [Compound 370, (S)-(7-(3,4-dimethoxyphenyl)pyrazolo[1,5-a]pyrimidin-2-yl)(4-(furan-3-carbonyl)-3-methylpiperazin-1-yl)methanone], for which the EC50 is < 0.2 µM.

As for `COc1ccc(-c2ccnc3cc(C(=O)NC45CC(NC(=O)N6CCOCC6)(C4)C5)nn23)cc1OC` [Compound 138, N-(3-(7-(3,4-dimethoxyphenyl)pyrazolo[1,5-a]pyrimidine-2-carboxamido)bicyclo [1.1.1]pentan-1-yl)morpholine-4-carboxamide], the EC50 was ≥ 2 µM.

Take `COc1ccc(-c2ccnc3cc(C(=O)Nc4ccc(N5CCOCC5)cc4F)nn23)cc1OC` [Compound 311, 7-(3,4-dimethoxyphenyl)-N-(2-fluoro-4-morpholinophenyl) pyrazolo[1,5-a]pyrimidine-2-carboxamide]: the EC50 was < 0.2 µM.

For `CCOc1ccc(NC(=O)c2cc3nccc(-c4cc(OC)cc(OC)c4)n3n2)cc1` [Compound 315, 7-(3,5-dimethoxyphenyl)-N-(4-ethoxyphenyl)pyrazolo [1,5-a]pyrimidine-2-carboxamide], the EC50 is ≥ 2 µM.
